Test results reported in ChEMBL document CHEMBL5532681, “Cannabidiol Inhibits Epithelial Ovarian Cancer: Role of Gut Microbiome” (J Nat Prod, 2024).
The source made the active and inactive calls. The rule behind the calls is not given here.

Legend:
ES-2 [1] = assay: Inhibition of cell migration in human ES2 cells assessed as decrease in migration distance at 12 uM incubated for 24 hrs by wound healing assay relative to control; type: functional; parameters: scale not given: the % may be the effect or the level left
A2780 [2] = assay: Antitumor activity against human A2780 cells xenografted in BALB/c female nude mouse assessed as reduction in EGFR positive cells at 20 mg/kg, ip administrated for 28 days by immunohistochemical analysis; type: functional, organism-based; settings: time 28.0 day
ES-2 [3] = assay: Inhibition of cell invasion in human ES2 cells assessed as decrease in invasion rate at 12 uM incubated for 48 hrs by transwell assay; type: functional; parameters: scale not given: the % may be the effect or the level left
A2780 [4] = assay: Antitumor activity against human A2780 cells xenografted in BALB/c female nude mouse assessed as disordered tumor cells at 10 to 20 mg/kg, ip administrated for 28 days by HE staining based analysis; type: functional, organism-based; settings: dose 10-20 mg/kg, time 28.0 day
[5] = Downregulation of MMP-2 expression in human A2780 cells at 12 uM by Westernblot analysis relative to control; type: functional
[6] = Toxicity in human A2780 cells xenografted in BALB/c female nude mouse assessed as effect on body weight at 10 to 20 mg/kg, ip administered on day 24 and measured every other day for 45 days; type: organism-based; settings: in vivo, 1080 h, dose 10-20 mg/kg, time 45 day
A2780 [7] = assay: Antitumor activity against human A2780 cells xenografted in BALB/c female nude mouse assessed as reduction in cells with hyaline cytoplasm at 10 to 20 mg/kg, ip administrated for 28 days by HE staining based analysis; type: functional, organism-based; settings: dose 10-20 mg/kg, time 28.0 day
ES-2 [8] = assay: Inhibition of cell migration in human ES2 cells assessed as decrease in migration distance at 6 uM incubated for 24 hrs by wound healing assay relative to control; type: functional; parameters: scale not given: the % may be the effect or the level left
[9] = Downregulation of MMP-9 expression in human A2780 cells at 12 uM by Westernblot analysis relative to control; type: functional
A2780 [10] = assay: Inhibition of cell invasion in human A2780 cells assessed as decrease in invasion rate at 3 uM incubated for 48 hrs by transwell assay; type: functional; parameters: scale not given: the % may be the effect or the level left
A2780 [11] = assay: Antiproliferative activity against human A2780 cells assessed as decrease in cell viability at 12 uM incubated for 24 hrs by crystal violet staining based assay relative to control; type: functional
A2780 [12] = assay: Inhibition of cell invasion in human A2780 cells assessed as decrease in invasion rate at 12 uM incubated for 48 hrs by transwell assay; type: functional; parameters: scale not given: the % may be the effect or the level left
A2780 [13] = assay: Downregulation of AKT expression in human A2780 cells by Westernblot analysis; type: functional, cell-based
ES-2 [14] = assay: Inhibition of cell migration in human ES2 cells assessed as decrease in migration distance at 3 uM incubated for 24 hrs by wound healing assay relative to control; type: functional; parameters: scale not given: the % may be the effect or the level left
A2780 [15] = assay: Inhibition of cell migration in human A2780 cells assessed as decrease in migration distance at 12 uM incubated for 24 hrs by wound healing assay relative to control; type: functional; parameters: scale not given: the % may be the effect or the level left
A2780 [16] = assay: Downregulation of EGFR expression in human A2780 cells by Westernblot analysis; type: functional, cell-based
ES-2 [17] = assay: Inhibition of cell invasion in human ES2 cells assessed as decrease in invasion rate at 6 uM incubated for 48 hrs by transwell assay; type: functional; parameters: scale not given: the % may be the effect or the level left
ES-2 [18] = assay: Antiproliferative activity against human ES2 cells assessed as decrease in cell viability at 12 uM incubated for 24 hrs by crystal violet staining based assay relative to control; type: functional
[19] = Downregulation of MMP-9 expression in human ES2 cells at 12 uM by Westernblot analysis relative to control; type: functional, ES-2
A2780 [20] = assay: Inhibition of cell invasion in human A2780 cells assessed as decrease in invasion rate at 6 uM incubated for 48 hrs by transwell assay; type: functional; parameters: scale not given: the % may be the effect or the level left
[21] = Toxicity in human A2780 cells xenografted in BALB/c female nude mouse assessed as effect on spleen index at 10 to 20 mg/kg, ip administered on day 24 and measured every other day for 45 days; type: organism-based; settings: in vivo, 1080 h, dose 10-20 mg/kg, time 45 day
ES-2 [22] = assay: Antiproliferative activity against human ES2 cells assessed as decrease in cell viability at 3 to 12 uM incubated for 24 hrs by crystal violet staining based assay; type: functional; settings: dose 3-12 µM
A2780 [23] = assay: Anticancer activity against human A2780 cells xenografted in BALB/c female nude mouse assessed as increase in abundance of alistipes at 10 to 20 mg/kg, ip administrated for 28 days; type: functional, organism-based; settings: dose 10-20 mg/kg, time 28.0 day
A2780 [24] = assay: Antitumor activity against human A2780 cells xenografted in BALB/c female nude mouse assessed as decrease in tumor volume at 10 to 20 mg/kg, ip administered on day 24 and measured every other day for 45 days; type: functional, organism-based; settings: dose 10-20 mg/kg, time 45.0 day
A2780 [25] = assay: Anticancer activity against human A2780 cells xenografted in BALB/c female nude mouse assessed as decrease in abundance of firmicutes at 10 to 20 mg/kg, ip administrated for 28 days; type: functional, organism-based; settings: dose 10-20 mg/kg, time 28.0 day
[26] = Downregulation of EGFR expression in human A2780 cells at 12 uM by Westernblot analysis relative to control; type: functional
A2780 [27] = assay: Antiproliferative activity against human A2780 cells assessed as decrease in cell viability at 3 to 12 uM incubated for 24 hrs by crystal violet staining based assay; type: functional; settings: dose 3-12 µM
ES-2 [28] = assay: Downregulation of AKT expression in human ES2 cells by Westernblot analysis; type: functional, cell-based
ES-2 [29] = assay: Downregulation of MMP-9 expression in human ES2 cells by Westernblot analysis; type: functional, cell-based
ES-2 [30] = assay: Downregulation of EGFR expression in human ES2 cells by Westernblot analysis; type: functional, cell-based
A2780 [31] = assay: Antiproliferative activity against human A2780 cells assessed as decrease in cell viability incubated for 24 to 72 hrs by CCK-8 assay; type: functional, cell-based; settings: time 24-72 hrs
[32] = Downregulation of EGFR expression in human ES2 cells at 12 uM by Westernblot analysis relative to control; type: functional, ES-2
[33] = Downregulation of MMP-2 expression in human ES2 cells at 12 uM by Westernblot analysis relative to control; type: functional, ES-2
ES-2 [34] = assay: Antiproliferative activity against human ES2 cells assessed as decrease in cell viability incubated for 24 to 72 hrs by CCK-8 assay; type: functional, cell-based; settings: time 24-72 hrs
ES-2 [35] = assay: Downregulation of MMP-2 expression in human ES2 cells by Westernblot analysis; type: functional, cell-based
A2780 [36] = assay: Antitumor activity against human A2780 cells xenografted in BALB/c female nude mouse assessed as irregular tumor shape at 10 to 20 mg/kg, ip administrated for 28 days by HE staining based analysis; type: functional, organism-based; settings: dose 10-20 mg/kg, time 28.0 day
A2780 [37] = assay: Inhibition of cell migration in human A2780 cells assessed as decrease in migration distance at 3 uM incubated for 24 hrs by wound healing assay relative to control; type: functional; parameters: scale not given: the % may be the effect or the level left
A2780 [38] = assay: Downregulation of MMP-9 expression in human A2780 cells by Westernblot analysis; type: functional, cell-based
A2780 [39] = assay: Downregulation of MMP-2 expression in human A2780 cells by Westernblot analysis; type: functional, cell-based
A2780 [40] = assay: Antiproliferative activity against human A2780 cells assessed as decrease in cell viability at 3 to 12 uM by CCK-8 assay; type: functional, cell-based; settings: dose 3-12 µM, TDE = time-dependent effect
A2780 [41] = assay: Anticancer activity against human A2780 cells xenografted in BALB/c female nude mouse assessed as increase in intestinal microbial diversity at 10 to 20 mg/kg, ip administrated for 28 days; type: functional, organism-based; settings: dose 10-20 mg/kg, time 28.0 day
ES-2 [42] = assay: Inhibition of cell invasion in human ES2 cells assessed as decrease in invasion rate 3 uM incubated for 48 hrs by transwell assay; type: functional; parameters: scale not given: the % may be the effect or the level left
ES-2 [43] = assay: Antiproliferative activity against human ES2 cells assessed as decrease in cell viability at 3 to 12 uM by CCK-8 assay; type: functional, cell-based; settings: dose 3-12 µM, TDE = time-dependent effect
A2780 [44] = assay: Inhibition of cell migration in human A2780 cells assessed as decrease in migration distance at 6 uM incubated for 24 hrs by wound healing assay relative to control; type: functional; parameters: scale not given: the % may be the effect or the level left
A2780 [45] = assay: Antitumor activity against human A2780 cells xenografted in BALB/c female nude mouse assessed as decrease in tumor weight at 10 to 20 mg/kg, ip administered on day 24 and measured every other day for 45 days; type: functional, organism-based; settings: dose 10-20 mg/kg, time 45.0 day
A2780 [46] = assay: Antitumor activity against human A2780 cells xenografted in BALB/c female nude mouse assessed as decrease in tumor growth rate at 10 to 20 mg/kg, ip administered on day 24 and measured every other day for 45 days; type: functional, organism-based; settings: dose 10-20 mg/kg, time 45.0 day
A2780 [47] = assay: Antitumor activity against human A2780 cells xenografted in BALB/c female nude mouse assessed as decrease in AKT positive cells at 10 to 20 mg/kg, ip administrated for 28 days by immunohistochemical analysis; type: functional, organism-based; settings: dose 10-20 mg/kg, time 28.0 day
A2780 [48] = assay: Antitumor activity against human A2780 cells xenografted in BALB/c female nude mouse assessed as decrease in body weight at 10 to 20 mg/kg, ip administered on day 24 and measured every other day for 45 days; type: functional, organism-based; settings: dose 10-20 mg/kg, time 45.0 day

## C=C(C)[C@@H]1CCC(C)=C[C@H]1c1c(O)cc(CCCCC)cc1O [CANNABIDIOL]
ES-2 [1]
  Activity: 26%
A2780 [2]
  Activity: Active
ES-2 [3]
  Activity: 32%
A2780 [4]
  Activity: Active
[5]
  Activity: 77%
[6]
  Activity: Non-Toxic
A2780 [7]
  Activity: Active
ES-2 [8]
  Activity: 53%
[9]
  Activity: 77%
A2780 [10]
  Activity: 71%
A2780 [11]
  Activity: 27%
A2780 [12]
  Activity: 61%
A2780 [13]
  Activity: Dose-Dependent Effect
ES-2 [14]
  Activity: 73%
A2780 [15]
  Activity: 52%
A2780 [16]
  Activity: Dose-Dependent Effect
ES-2 [17]
  Activity: 39%
ES-2 [18]
  Activity: 24%
[19]
  Activity: 81%
A2780 [20]
  Activity: 56%
[21]
  Activity: Non-Toxic
ES-2 [22]
  Activity: Dose-Dependent Effect
A2780 [23]
  Activity: Active
A2780 [24]
  Activity: Active
A2780 [25]
  Activity: Active
[26]
  Activity: 58%
A2780 [27]
  Activity: Dose-Dependent Effect
ES-2 [28]
  Activity: Dose-Dependent Effect
ES-2 [29]
  Activity: Dose-Dependent Effect
ES-2 [30]
  Activity: Dose-Dependent Effect
A2780 [31]
  Activity: Dose-Dependent Effect
[32]
  Activity: 79%
[33]
  Activity: 77%
ES-2 [34]
  Activity: Dose-Dependent Effect
ES-2 [35]
  Activity: Dose-Dependent Effect
A2780 [36]
  Activity: Active
A2780 [37]
  Activity: 75%
A2780 [38]
  Activity: Dose-Dependent Effect
A2780 [39]
  Activity: Dose-Dependent Effect
A2780 [40]
  Activity: Tde
A2780 [41]
  Activity: Active
ES-2 [42]
  Activity: 80%
ES-2 [43]
  Activity: Tde
A2780 [44]
  Activity: 62%
A2780 [45]
  Activity: Active
A2780 [46]
  Activity: Active
A2780 [47]
  Activity: Active
A2780 [48]
  Activity: Active
